In ChEMBL document CHEMBL1136271, “Design and synthesis of potent, orally bioavailable dihydroquinazolinone inhibitors of p38 MAP kinase” (Bioorg Med Chem Lett, 2003):

Legend:
Type in all cases: ADME, organism-based
[1] = Area under curve was determined in rat after PO administration; design: concentration or dose not given beside the values; conditions: in vivo
[2] = Volume distribution in rat; conditions: in vivo
[3] = Oral bioavailability in rat; conditions: in vivo
[4] = Plasma clearance in rat; conditions: read-out: Clp
[5] = Half-life in rat; conditions: in vivo

## CN1CCC(c2cc(-c3ccc(F)cc3Cl)c3c(c2)N(c2c(Cl)cccc2Cl)C(=O)NC3)CC1
[1]
  AUC: 0.06 µM·h
[2]
  Vd: 5.3 L/kg
[3]
  bioavailability: 9.2%
[4]
  clearance: 49.8 mL/min/kg
[5]
  half-life: 1.5 h

## CCN1CCC(c2cc(-c3ccc(F)cc3Cl)c3c(c2)N(c2c(Cl)cccc2Cl)C(=O)NC3)CC1
[1]
  AUC: 0.11 µM·h
[2]
  Vd: 7.5 L/kg
[3]
  bioavailability: 20%
[4]
  clearance: 56.3 mL/min/kg
[5]
  half-life: 2.2 h

## CC(C1CC1)N1CCC(c2cc(-c3ccc(F)cc3Cl)c3c(c2)N(c2c(Cl)cccc2Cl)C(=O)NC3)CC1 (configuration not stated)
[1]
  AUC: 0.36 µM·h
[2]
  Vd: 4.7 L/kg
[3]
  bioavailability: 38%
[4]
  clearance: 31.1 mL/min/kg
[5]
  half-life: 2 h

## O=C1NCc2c(-c3ccc(F)cc3F)cc(C3CCNCC3)cc2N1c1c(Cl)cccc1Cl
[1]
  AUC: 0.02 µM·h
[2]
  Vd: 13.6 L/kg
[3]
  bioavailability: 4.3%
[4]
  clearance: 58.6 mL/min/kg
[5]
  half-life: 3.3 h

## O=C1NCc2c(-c3ccccc3Cl)cc(OC3CCNCC3)cc2N1c1c(Cl)cccc1Cl
[1]
  AUC: 0.02 µM·h
[2]
  Vd: 21 L/kg
[3]
  bioavailability: 6.3%
[4]
  clearance: 116 mL/min/kg
[5]
  half-life: 3 h

## O=C1NCc2c(-c3ccc(F)cc3Cl)cc(CN3CCNCC3)cc2N1c1c(Cl)cccc1Cl
[1]
  AUC: 0.04 µM·h
[2]
  Vd: 18.6 L/kg
[3]
  bioavailability: 15.7%
[4]
  clearance: 140 mL/min/kg
[5]
  half-life: 2.8 h

## CC(C)(C)N1CCC(c2cc(-c3ccc(F)cc3Cl)c3c(c2)N(c2c(Cl)cccc2Cl)C(=O)NC3)CC1
[1]
  AUC: 0.58 µM·h
[2]
  Vd: 6 L/kg
[3]
  bioavailability: 67.7%
[4]
  clearance: 35.2 mL/min/kg
[5]
  half-life: 2.2 h

## O=C1NCc2c(-c3ccc(F)cc3Cl)cc(C3CCN(C4CC4)CC3)cc2N1c1c(Cl)cccc1Cl
[1]
  AUC: 0.39 µM·h
[2]
  Vd: 8.1 L/kg
[3]
  bioavailability: 59.3%
[4]
  clearance: 51.7 mL/min/kg
[5]
  half-life: 2.5 h

## CC(C)N1CCC(c2cc(-c3ccc(F)cc3Cl)c3c(c2)N(c2c(Cl)cccc2Cl)C(=O)NC3)CC1
[1]
  AUC: 0.06 µM·h
[2]
  Vd: 12.2 L/kg
[3]
  bioavailability: 16%
[4]
  clearance: 84.8 mL/min/kg
[5]
  half-life: 1.9 h

## O=C1NCc2c(-c3ccc(F)cc3Cl)cc(C3CCN(CC4CC4)CC3)cc2N1c1c(Cl)cccc1Cl
[1]
  AUC: 0.15 µM·h
[2]
  Vd: 6.3 L/kg
[3]
  bioavailability: 22.6%
[4]
  clearance: 50.9 mL/min/kg
[5]
  half-life: 1.9 h

## O=C1NCc2c(-c3ccc(F)cc3Cl)cc(C3CCNCC3)cc2N1c1c(Cl)cccc1Cl
[2]
  Vd: 7.8 L/kg
[3]
  bioavailability: 0%
[4]
  clearance: 72.3 mL/min/kg
[5]
  half-life: 2 h

## O=C1NCc2c(-c3ccccc3Cl)cc(C3CCNCC3)cc2N1c1c(Cl)cccc1Cl
[2]
  Vd: 21.4 L/kg
[3]
  bioavailability: 0%
[4]
  clearance: 181 mL/min/kg
[5]
  half-life: 2.5 h

## O=C1NCc2c(-c3ccc(F)cc3Cl)cc(C3CCN(CC4CCC4)CC3)cc2N1c1c(Cl)cccc1Cl
[1]
  AUC: 0.14 µM·h
[2]
  Vd: 2.5 L/kg
[3]
  bioavailability: 11.6%
[4]
  clearance: 24.2 mL/min/kg
[5]
  half-life: 1.6 h

## O=C1NCc2c(-c3ccc(F)cc3Cl)cc(C3CCN(C4CCC4)CC3)cc2N1c1c(Cl)cccc1Cl
[1]
  AUC: 0.14 µM·h
[2]
  Vd: 6.6 L/kg
[3]
  bioavailability: 24.7%
[4]
  clearance: 53.7 mL/min/kg
[5]
  half-life: 1.7 h

## O=C(c1cc(-c2ccc(F)cc2F)c2c(c1)N(c1c(Cl)cccc1Cl)C(=O)NC2)N1CCNCC1
[2]
  Vd: 12.8 L/kg
[3]
  bioavailability: 1.5%
[4]
  clearance: 94.7 mL/min/kg
[5]
  half-life: 2.3 h

## O=C1NCc2c(-c3ccccc3Cl)cc(N3CCNCC3)cc2N1c1c(Cl)cccc1Cl
[1]
  AUC: 0.22 µM·h
[2]
  Vd: 4.3 L/kg
[3]
  bioavailability: 22.7%
[4]
  clearance: 34.4 mL/min/kg
[5]
  half-life: 1.6 h
